The source of these data is PubChem BioAssay (NCI).

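Test compounds were applied to cells in 96-well plates for 48 hours at 5 doses. The concentration for 50% growth inhibition is given as GI50. TGI marks complete inhibition of growth.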

One assay deals with HS 578T breast. The assay can be described thus: inhibition of tumour cell growth, NCI panel, 48 h.
The test system of the next assay is MDA-MB-435. The assay can be described thus: inhibition of tumour cell growth, NCI panel, 48 h.

Take `CC(=O)[C@@H]1CCC=C2CC[C@]3(C)[C@@H](CC[C@@H]4[C@@]5(C)CCCNC(C)(C)[C@@H]5CC[C@]43C)[C@H]21`: the GI50 with HS 578T breast and in the assay with MDA-MB-435 was 1.87 µM throughout. The figures for the TGI in the assay on HS 578T breast and in the assay with MDA-MB-435 were 4.39 µM and 3.49 µM, respectively.

As for `CC(=O)NCCC1CN(C(=O)/C=C\C#C[Si](C)(C)C)c2ccccc21` (stereo not given), the TGI with HS 578T breast and in the assay with MDA-MB-435 was over 100 µM throughout.

Consider `O=C1CC(=O)c2c(O)cc(O)c(c2O)-c2c(ccc(O)c2O)C2=CC(=O)c3c(O)cc(O)c(c3O2)-c2c1ccc(O)c2O` (tested in a mixture with another compound), for which the TGI in the assay with HS 578T breast and with MDA-MB-435 was over 50 µM throughout.

Take `CCOC(=O)c1sc2nc(SC)nc3c2c1NC(=O)CN3c1cccc(F)c1`: the results for the TGI in the assay on HS 578T breast and with MDA-MB-435 were 59.7 µM and over 100 µM, respectively.
